Values after ≈ are worked out from the molar mass of the structure shown. Values joined by “and” are separate entries in the source; they are usually repeats but may differ in a detail not shown here. Equal entries are not always repeated. Where two headings read alike, the source gives them in different places.
Tests used:
M. fermentans = type: cell-based; conditions: M. fermentans (15 isolates)
M. genitalium = type: cell-based; conditions: M. genitalium (5 isolates)
S. pyogenes = experiment: microbe, parasite or virus in culture; type: cell-based; conditions: for MIC: Streptococcus pyogenes
[1] = system: intraphagocytic L. pneumophila ATCC 33153 (THP-1); type: cell-based; conditions: intracellular L. pneumophila ATCC 33153
M. catarrhalis = experiment: microbe, parasite or virus in culture; type: cell-based; conditions: Moraxella catarrhalis
S. pneumoniae [2] = experiment: neutropenic mouse thigh infection; type: in vivo; conditions: QD, PO
S. pneumoniae [3] = experiment: microbe, parasite or virus in culture; type: cell-based; conditions: for MIC: Streptococcus pneumoniae

**Q.** How did the “MIC Range” value (M. fermentans) turn out when `CC[C@H]1OC(=O)[C@H](C)C(=O)[C@H](C)[C@@H](O[C@@H]2O[C@H](C)C[C@H](N(C)C)[C@H]2O)[C@](C)(OC)C[C@@H](C)C(=O)[C@H](C)[C@H]2N(CCCCn3cnc(-c4cccnc4)c3)C(=O)O[C@]12C` [TEL, telithromycin] was run?
**A.** 0.002 to 0.031 µg/mL

**Q.** And the MIC50 (M. fermentans; Mycoplasmopsis fermentans)?
**A.** ≤ 0.008 µg/mL

**Q.** What about the MIC90 (M. fermentans; Mycoplasmopsis fermentans) of the same compound?
**A.** 0.016 µg/mL (≈ 0.0197 µM)

**Q.** What about the “MIC Range” value (M. genitalium) of the same compound?
**A.** ≦0.00003-0.00025 μg/mL

**Q.** And the “strains with resistant clones / strains tested” value (S. pyogenes; S. pyogenes)?
**A.** 2/4 and 2/5

**Q.** And the MIC (S. pyogenes; read-out: Initial MIC, strain 237 Macrolide-R [LA mutation], parent)?
**A.** 0.06 µg/mL (≈ 0.0739 µM)

**Q.** What about the MIC (S. pyogenes; read-out: Initial MIC, strain 2011 Macrolide-R [mef(A)], parent) of the same compound?
**A.** 0.5 µg/mL (≈ 0.616 µM)

**Q.** And the MIC (S. pyogenes; read-out: Initial MIC, strain 2094 Macrolide-R [erm(A)], parent)?
**A.** 0.03 µg/mL (≈ 0.0369 µM)

**Q.** What about the MIC (S. pyogenes; read-out: Initial MIC, strain 2132 Macrolide-S, parent) of the same compound?
**A.** 0.008 µg/mL (≈ 0.00985 µM)

**Q.** And the MIC (S. pyogenes; read-out: MIC of parents of resistant clones, S. pyogenes)?
**A.** 0.03 to 8 µg/mL

**Q.** What about the MIC (S. pyogenes; read-out: Parental MICs, S. pyogenes, 5 strains with varying resistotypes) of the same compound?
**A.** 0.03 to 8 µg/mL (≈ 0.0369 to 9.85 µM)

**Q.** And the MIC (S. pyogenes; read-out: Selected Resistance (MIC), strain 237 Macrolide-R [LA mutation], after serial passages in the drug)?
**A.** 0.125 µg/mL (≈ 0.154 µM)

**Q.** And the MIC (S. pyogenes; read-out: Selected Resistance (MIC), strain 2011 Macrolide-R [mef(A)], after serial passages in the drug)?
**A.** 1 µg/mL (≈ 1.23 µM)

**Q.** What about the MIC (S. pyogenes; read-out: Selected Resistance (MIC), strain 2094 Macrolide-R [erm(A)], after serial passages in the drug) of the same compound?
**A.** 0.25 µg/mL (≈ 0.308 µM)

**Q.** What about the MIC (S. pyogenes; read-out: Selected Resistance (MIC), strain 2132 Macrolide-S, after serial passages in the drug) of the same compound?
**A.** 0.03 µg/mL (≈ 0.0369 µM)

**Q.** What about the MIC (S. pyogenes; read-out: Selected Resistance (MIC), strain 2368 Macrolide-R [erm(B)], after serial passages in the drug) of the same compound?
**A.** > 64 µg/mL

**Q.** What about the “days until resistant clones (MIC increase)” value (S. pyogenes; daily passages, max. 50) of the same compound?
**A.** 6 to 22 days

**Q.** What about the “Retest MIC after 10 Antibioticfree Subcultures” value (S. pyogenes; strain 237 Macrolide-R [LA mutation], clone selected with CEM-101) of the same compound?
**A.** 1 µg/mL

**Q.** And the “Retest MIC after 10 Antibioticfree Subcultures” value (S. pyogenes; strain 237 Macrolide-R [LA mutation], clone selected with CLN)?
**A.** 0.06 µg/mL

**Q.** What about the “Retest MIC after 10 Antibioticfree Subcultures” value (S. pyogenes; strain 2011 Macrolide-R [mef(A)], clone selected with AZI) of the same compound?
**A.** 0.25 µg/mL

**Q.** What about the “Retest MIC after 10 Antibioticfree Subcultures” value (S. pyogenes; strain 2094 Macrolide-R [erm(A)], clone selected with AZI) of the same compound?
**A.** 0.03 µg/mL

**Q.** What about the “Retest MIC after 10 Antibioticfree Subcultures” value (S. pyogenes; strain 2094 Macrolide-R [erm(A)], clone selected with CEM-101) of the same compound?
**A.** 0.5 µg/mL

**Q.** What about the “Retest MIC after 10 Antibioticfree Subcultures” value (S. pyogenes; strain 2094 Macrolide-R [erm(A)], clone selected with CLN) of the same compound?
**A.** 0.03 µg/mL

**Q.** What about the “Retest MIC after 10 Antibioticfree Subcultures” value (S. pyogenes; strain 2094 Macrolide-R [erm(A)], clone selected with CLR) of the same compound?
**A.** 0.03 µg/mL

**Q.** What about the “Retest MIC after 10 Antibioticfree Subcultures” value (S. pyogenes; strain 2094 Macrolide-R [erm(A)], clone selected with TEL) of the same compound?
**A.** 0.125 µg/mL

**Q.** And the “Retest MIC after 10 Antibioticfree Subcultures” value (S. pyogenes; strain 2132 Macrolide-S, clone selected with AZI)?
**A.** 0.03 µg/mL

**Q.** And the “Retest MIC after 10 Antibioticfree Subcultures” value (S. pyogenes; strain 2368 Macrolide-R [erm(B)], clone selected with CEM-101)?
**A.** >64 µg/mL

**Q.** What about the “Retest MIC after 10 Antibioticfree Subcultures” value (S. pyogenes; strain 2368 Macrolide-R [erm(B)], clone selected with TEL) of the same compound?
**A.** >64 µg/mL

**Q.** And the “Cs, static concentration” value [1]?
**A.** 0.06 mg/L

**Q.** What about the MIC50 (M. catarrhalis) of the same compound?
**A.** 0.12 µg/mL (≈ 0.148 µM)

**Q.** And the MIC90 (M. catarrhalis)?
**A.** 0.25 µg/mL (≈ 0.308 µM)

**Q.** And the “Dose for 1 log10 Reduction from 24 hour controls” value (S. pneumoniae [2]; S. pneumoniae 1629)?
**A.** 11.0 mg/Kg

**Q.** What about the “Dose for 3 log10 Reduction from 24 hour controls” value (S. pneumoniae [2]; S. pneumoniae 1629) of the same compound?
**A.** 15.5 mg/Kg

**Q.** And the “Dose for 1 log10 Reduction from 24 hour controls” value (S. pneumoniae [2]; S. pneumoniae 6303)?
**A.** 4.75 mg/Kg

**Q.** What about the “Dose for 2 log10 Reduction from 24 hour controls” value (S. pneumoniae [2]; S. pneumoniae 6303) of the same compound?
**A.** 6.5 mg/Kg

**Q.** What about the “Dose for 3 log10 Reduction from 24 hour controls” value (S. pneumoniae [2]; S. pneumoniae 6303) of the same compound?
**A.** 8.75 mg/Kg

**Q.** And the “strains with resistant clones / strains tested” value (S. pneumoniae [3]; S. pneumoniae)?
**A.** 5/8

**Q.** And the MIC (S. pneumoniae [3]; read-out: Initial MIC, strain 24 Macrolide-R [erm(B)], parent)?
**A.** 0.25 µg/mL (≈ 0.308 µM)

**Q.** What about the MIC (S. pneumoniae [3]; read-out: Initial MIC, strain 1076 Macrolide-R [erm(B)&mef(A)], parent) of the same compound?
**A.** 0.5 µg/mL (≈ 0.616 µM)

**Q.** And the MIC (S. pneumoniae [3]; read-out: Initial MIC, strain 1077 Macrolide-S, parent)?
**A.** 0.004 µg/mL (≈ 0.00493 µM)

**Q.** And the MIC (S. pneumoniae [3]; read-out: Initial MIC, strain 1635 Macrolide-R [erm(A)], parent)?
**A.** 0.004 µg/mL (≈ 0.00493 µM)

**Q.** And the MIC (S. pneumoniae [3]; read-out: Initial MIC, strain 2686 Macrolide-R [L4 mutation], parent)?
**A.** 0.06 µg/mL (≈ 0.0739 µM)

**Q.** What about the MIC (S. pneumoniae [3]; read-out: Initial MIC, strain 3009 Macrolide-R [23SrRNA mutation], parent) of the same compound?
**A.** 0.016 µg/mL (≈ 0.0197 µM)

**Q.** And the MIC (S. pneumoniae [3]; read-out: Initial MIC, strain 3665 Macrolide-R [mef(A)], parent)?
**A.** 0.125 µg/mL (≈ 0.154 µM)

**Q.** And the MIC (S. pneumoniae [3]; read-out: Initial MIC, strain 7127 Macrolide-S [S20N in L4, A105V in L22], parent)?
**A.** 0.008 µg/mL (≈ 0.00985 µM)

**Q.** And the MIC (S. pneumoniae [3]; read-out: MIC of parents of resistant clones, S. pneumoniae (CEM-101: 7 strains))?
**A.** 0.004 to 0.5 µg/mL

**Q.** What about the MIC (S. pneumoniae [3]; read-out: Parental MICs, S. pneumoniae, 8 strains with varying resistotypes) of the same compound?
**A.** 0.004 to 0.5 µg/mL (≈ 0.00493 to 0.616 µM)

**Q.** What about the MIC (S. pneumoniae [3]; read-out: Selected Resistance MIC, strain 24 Macrolide-R [erm(B)], after serial passages in the drug) of the same compound?
**A.** 32 µg/mL (≈ 39.4 µM)

**Q.** What about the MIC (S. pneumoniae [3]; read-out: Selected Resistance MIC, strain 1076 Macrolide-R [erm(B)&mef(A)], after serial passages in the drug) of the same compound?
**A.** > 64 µg/mL

**Q.** What about the MIC (S. pneumoniae [3]; read-out: Selected Resistance MIC, strain 1077 Macrolide-S, after serial passages in the drug) of the same compound?
**A.** 0.25 µg/mL (≈ 0.308 µM)

**Q.** And the MIC (S. pneumoniae [3]; read-out: Selected Resistance MIC, strain 1635 Macrolide-R [erm(A)], after serial passages in the drug)?
**A.** 0.008 µg/mL (≈ 0.00985 µM)

**Q.** And the MIC (S. pneumoniae [3]; read-out: Selected Resistance MIC, strain 2686 Macrolide-R [L4 mutation], after serial passages in the drug)?
**A.** 0.5 µg/mL (≈ 0.616 µM)

**Q.** What about the MIC (S. pneumoniae [3]; read-out: Selected Resistance MIC, strain 3009 Macrolide-R [23SrRNA mutation], after serial passages in the drug) of the same compound?
**A.** 0.03 µg/mL (≈ 0.0369 µM)

**Q.** And the MIC (S. pneumoniae [3]; read-out: Selected Resistance MIC, strain 3665 Macrolide-R [mef(A)], after serial passages in the drug)?
**A.** 2 µg/mL (≈ 2.46 µM)

From US9901592B2 (priority 2008, dated 2018)
